The test system of assay [1] is C57BL/6 mice treated with 3-NP. The experiment in a line: 3-Nitropropionic acid (3-NP) pharmacological mouse model of Huntington's disease. To be noted: 20 mg/kg i.p. twice a day, 3-NP 50 mg/kg once a day, 7 days. The assay is classed as in vivo. The procedure: Importantly, this reduction resembled physiological condition (RB5 3-NP vs RB5 Saline p=0.85). Mean±SEM, n=10 each experimental group).
Before use, CCP-SCR and CPP-RB5 were diluted in PBS 1× and injected twice a day at 12 hr intervals (20 mg/kg). 3-NP was injected 1 h after peptides once a day for 7 consecutive days (50 mg/kg) in male C57B/6 mice. All drugs were administered by intraperitoneal (i.p.) injection in a volume of 10 ml/kg. The mice were euthanized 1 hr after the last peptide injection and transcardially perfused with buffered 4% PFA, and processed for immunohistochemistry. The DeadEnd Colorimetric TUNEL System (Promega) was used to detect apoptotic cells on tissue sections […] thick. For each animal three consecutive coronal sections were taken, mounted on glass slides and processed for immunohistochemical analysis according to the recommended procedures. For quantification, the number of positive neurons in each section was counted across the dorsolateral region of the striatum of both hemispheres and means values were calculated.
We set up a protocol in which male C57BL/6 mice were injected with CPP-SCR or CPP-RB5 peptides (20 mg/kg, i.p.) twice a day (every 12 h) for 7 days and 1 h after peptides injection they received one injection of 3-NP (50 mg/kg). At the end of treatment, animals were perfused and brains were prepared as for immunohistochemistry.

The test system of a further assay is ERK1/2. The experiment in a line: Ex vivo acute striatal slices, glutamate stimulation, Western blot for phospho ERK. To be noted: 50 μM peptide; for ERK2 activation (phosphorylation of ERK2) / pERK1 (phospho-ERK1) level: glutamate 100 μM 10 min, vs scramble. It counts as cell-based, mouse. As to the method:
a) RB5 peptide selectively promoted activation of ERK2. Acute striatal slices either pre-treated with Scramble (SCR) or RB5 peptide (50 μM) and then stimulated 10 minutes with glutamate (GLU) (100 μM) or vehicle were analysed in Western blot (left panel) and probed with anti phospho ERK antibodies (p44^ERK1 and p42^ERK2) and anti ERK1/2 antibody. GAPDH was used as loading control. […] No changes were detected in the total ERK1 and ERK2 levels. GAPDH was used as loading control. […] Mice injected with a single dose of CPP-SCR or CPP-RB5 peptides (20 mg/kg, i.p.) were rapidly perfused 1 h later and brains were dissected and further analysed for IHC and immunofluorescence. Representative photomicrographs of pERK1/2, pMSK, pAch3, pELK1 and c-Fos expression in the striatum. […] Two-way ANOVA Bonferroni post hoc comparison: one black star, p<0.05, two black stars, p<0.01, one white star, p<0.001. p) Dose response curve of RB5 peptide for ERK activation. 200 μm thick striatal slices were freshly prepared from 2-month old mice and transferred into a perfusion chamber for 1 h at 32° C. Slices were pre-treated with different doses of RB5 or scrambled control. After 1 h, slices for each dose was fixed in PFA 4% for 15 min. 18 μm cryo-sections were processed for immunohistochemistry with anti-phospho p44/p42 MAP kinase. Neuronal quantification was performed with ImageJ software by counting the number of phospho-ERK positive cells in each slice. The level of activation is expressed on the Y-axis as arbitrary units (AU). Doses are reported in a logarithmic scale (Log 10) on the X-axis. The EC50 was calculated using GraphPad Prism software.
Adult mice were anesthetized and decapitated. The brains were rapidly removed from the skull and put on a cool glass plate filled with ice-cold sucrose-based dissecting solution (87 mM NaCl, 2.5 mM KCl, 7 mM MgCl2, 1 mM NaH2PO4, 75 mM sucrose, 25 mM NaHCO3, 10 mM D-glucose, 0.5 mM CaCl2), 2 mM kynurenic acid) and oxygenated with 95% O2 and 5% CO2 and subsequently mounted on the vibratome stage (Vibratome, VT1000S-Leica Microsystems). 200 μm-thick slices were cut and transferred into the brain slice chamber (Brain slice chamber-BSC1—Scientific System design Inc., Mississauga, ON, Canada) and allowed to recover for 1 h at 32° C., with a constant perfusion of carboxygenated artificial cerebrospinal fluid (ACSF) in the presence of the Scramble or RB5 peptide (50 μM). Brain slice stimulation was performed with 100 μM glutamate in the chamber for 10 min. After rapid fixation in 4% PFA for 15 min at room temperature, slices were rinsed and the cryoprotected overnight at 4° C. in sucrose solution. On the following day slices were further cut in thinner slices of 18 μm using cryostat (Leica CM1850) and collected onto SuperFrost Plus slides (Thermo Scientific).
Mice were sacrificed by decapitation and brain slices were freshly prepared according to the above ex-vivo system protocol and incubated in a perfusing chamber with the peptides. After stimulation with glutamate or saline, slices were then homogenised and used for protein determination using a DC Protein Assay kit (Bio-rad). Equal amounts of protein (5 or 10 μg, depending on the target protein) for each sample were loaded onto 12% polyacrylamide gels. Proteins were separated onto SDS/PAGE and transferred to nitrocellulose membranes. After incubation for 1 hr in blocking solution (TBS1λ, 0.1% Tween), membranes were incubated overnight with anti ERK2 (K-23):sc-153 (1:1000 Santa Cruz Biotechnology, Dallas, Tex.), phospho-p42-44 Map Kinase (Thr202/[…]) (1:1000 Cell Signalling Technology, Danvers, Mass.) and anti-GAPDH (FL-335): sc-25778 (1:1000 Santa Cruz Biotechnology, Dallas, Tex.). The immunoblots were analysed with ImageJ software to measure the optical density of the bands. The levels of each protein were normalized on the GAPDH loading control.
A general note: A western blot detects proteins with antibodies after separation by electrophoresis.

Assay [2] concerns embryonic striatal cultures. The experiment in a line: TUNEL apoptosis in neuronal embryonic striatal cultures. It counts as cell-based, mouse. As to the method:
Data are expressed as Mean±SEM, n=5. Two-way ANOVA Bonferroni post-hoc comparison **p<0.01.
Embryonic cultures (E16) were prepared from striata of WT mice, plated onto poly-L-lysine coated glass and kept for 10 days in culture medium as previously described (Fasano et al, Biol Psy 2009). Two different concentrations (20 μM and 50 μM) of CPP-RB5 and CPP-SCR peptides were added to the culture medium by the third day and replaced every day. On day 11, cells were fixed with 4% PFA pH 7.4 in PBS for 10 min.
The DeadEnd Colorimetric TUNEL System (Promega) was used to detect apoptotic cells in cultured cells labelling the fragmented DNA of apoptotic cells using a modified TUNEL assay. TUNEL staining was realized with diaminobenzide (DAB) following the manufacture's protocol. Sample areas were digitized through a video camera (Nicon) connected to a Zeiss microscope using a 20× objective. 4 areas were counted and averaged for each plate.

As to `CSCC[C@H](NC(=O)[C@H](CCC(=O)O)NC(=O)[C@@H](NC(=O)[C@H](CCC(=O)O)NC(=O)CNC(=O)[C@@H]1CCCN1C(=O)[C@@H](NC(=O)CNC(=O)[C@@H]1CCCN1C(=O)CNC(=O)[C@@H](NC(=O)CNC(=O)[C@H](CCC(=O)O)NC(=O)[C@@H](NC(=O)[C@H](CCCNC(=N)N)NC(=O)[C@H](CCCNC(=N)N)NC(=O)[C@@H]1CCCN1C(=O)[C@H](CCC(=O)O)NC(=O)CNC(=O)CNC(=O)CNC(=O)CNC(=O)CNC(=O)[C@H](CCC(N)=O)NC(=O)[C@@H]1CCCN1C(=O)[C@@H]1CCCN1C(=O)[C@H](CCCNC(=N)N)NC(=O)[C@H](CCCNC(=N)N)NC(=O)[C@H](CCCNC(=N)N)NC(=O)[C@H](CCC(N)=O)NC(=O)[C@H](CCCNC(=N)N)NC(=O)[C@H](CCCNC(=N)N)NC(=O)[C@H](CCCCN)NC(=O)[C@H](CCCCN)NC(=O)[C@H](CCCNC(=N)N)NC(=O)CNC(C)=O)[C@@H](C)O)C(C)C)C(C)C)C(C)C)C(=O)N[C@H](C(=O)N[C@@H](CCCCN)C(=O)NCC(=O)N[C@@H](CCC(N)=O)C(=O)N1CCC[C@H]1C(=O)N[C@@H](Cc1ccccc1)C(=O)N[C@@H](CC(=O)O)C(=O)N[C@@H](C(=O)O)C(C)C)C(C)C` [RB5], in assay [1], the “Caspase-3 levels (striatum)” value is recorded as “diminished Caspase-3 levels” and the “apoptotic levels (TUNEL, striatum)” value is on record as “significant reduction of apoptotic levels”. In the assay with ERK1/2, the “total ERK1 and ERK2 levels” value is “No changes”; the “ERK2 activation (phosphorylation of ERK2)” value is given as “significantly higher”; the “pERK1 (phospho-ERK1) level” value is listed as “equally increased”. Moreover, the “apoptotic levels (TUNEL apoptotic nuclei)” value in assay [2] (higher dose (50 μM), 7 days, vs Scramble) was “significant reduction of apoptotic levels”.
Turning to “GRKKRRQRRRPPQGGGGGEPRRTEGVGPGVPGEVEMVKGQPFDV (listed as Homo sapiens) [CPP-RB5]”, in assay [1], the “Caspase-3 levels (striatum)” value is on record as “reduce pre-apoptotic levels of Caspase 3 marker to control levels” and the “apoptotic levels (TUNEL, striatum)” value is listed as “reducing apoptosis to control levels”. Also, in the assay on ERK1/2, the “total ERK1 and ERK2 levels” value is “no changes”; the “ERK2 activation (phosphorylation of ERK2)” value was “selectively enhanced”; the “pERK1 (phospho-ERK1) level” value is reported as “equally increased”. Moreover, in assay [2] (50 μM, 7 consecutive days, TUNEL), the “reduction of apoptosis compared to CPP-SCR values” is reported as 32%.

The record behind these values is patent publication US11471502B2, “Neuroprotective peptide” (UNIVERSITY COLLEGE CARDIFF C[…], priority 2017, dated 2022).
